From ChEMBL document CHEMBL1201862, “PubChem BioAssay data set” (2004)
Activity calls are given as the source filed them.

What was measured:
Protein RecA = target: T1, Protein RecA (Mycobacterium tuberculosis, UniProt P9WHJ3); experiment: Fluorescence Cell-Free Homogeneous Dose Retest to Identify Inhibitors of RecA-Intein Splicing Activity. [Related pubchem assays (depositor defined):AID2097, AID2223, AID489010, AID492950]; assay type: functional
T1 sequence (P9WHJ3 whole entry): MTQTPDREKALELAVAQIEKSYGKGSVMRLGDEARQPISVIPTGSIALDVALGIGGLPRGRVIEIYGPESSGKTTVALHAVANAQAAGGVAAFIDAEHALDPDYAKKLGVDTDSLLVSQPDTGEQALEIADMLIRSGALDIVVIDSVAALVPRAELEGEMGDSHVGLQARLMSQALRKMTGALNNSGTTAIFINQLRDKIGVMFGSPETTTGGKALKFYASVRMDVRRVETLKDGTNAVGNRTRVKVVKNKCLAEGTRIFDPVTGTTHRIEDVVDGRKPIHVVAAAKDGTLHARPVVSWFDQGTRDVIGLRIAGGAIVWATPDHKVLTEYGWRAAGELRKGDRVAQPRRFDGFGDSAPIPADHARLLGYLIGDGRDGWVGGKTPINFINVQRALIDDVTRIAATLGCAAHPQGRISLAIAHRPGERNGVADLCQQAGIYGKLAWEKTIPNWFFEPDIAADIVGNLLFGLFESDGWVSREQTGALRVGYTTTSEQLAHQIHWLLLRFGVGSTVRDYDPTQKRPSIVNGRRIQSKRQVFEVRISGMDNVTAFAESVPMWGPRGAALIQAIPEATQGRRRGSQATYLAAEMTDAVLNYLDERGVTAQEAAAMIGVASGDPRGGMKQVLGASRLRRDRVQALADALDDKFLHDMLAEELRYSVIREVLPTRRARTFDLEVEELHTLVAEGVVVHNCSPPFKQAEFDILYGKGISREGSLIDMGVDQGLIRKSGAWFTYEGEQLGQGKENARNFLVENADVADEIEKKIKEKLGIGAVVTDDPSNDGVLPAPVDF

[1] = microbe, parasite or virus in culture; assay type: functional; settings: Mycobacterium tuberculosis
[2] = HepG2 cell cytotoxicity, dose response, cytotoxicity control for non-replicating M. tuberculosis project (AID 489018); assay type: functional; settings: Mycobacterium tuberculosis
HEK293 [3] = experiment: cells; settings: Homo sapiens
[4] = THP-1 cell cytotoxicity, dose response, cytotoxicity control for non-replicating M. tuberculosis project (AID 489025); assay type: functional
[5] = target: T2, Microphthalmia-associated transcription factor (Homo sapiens, UniProt O75030); experiment: reducers of TRPM1 reporter luminescence, concentration series – cell-based, SK-MEL-5, cherry-picked, set 3, MITF inhibitor project, dose response (AID 493073); assay type: functional;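 note: SK-MEL-5 melanoma cells with luciferase driven by the MITF target TRPM1 promoter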
T2 sequence (O75030 whole entry): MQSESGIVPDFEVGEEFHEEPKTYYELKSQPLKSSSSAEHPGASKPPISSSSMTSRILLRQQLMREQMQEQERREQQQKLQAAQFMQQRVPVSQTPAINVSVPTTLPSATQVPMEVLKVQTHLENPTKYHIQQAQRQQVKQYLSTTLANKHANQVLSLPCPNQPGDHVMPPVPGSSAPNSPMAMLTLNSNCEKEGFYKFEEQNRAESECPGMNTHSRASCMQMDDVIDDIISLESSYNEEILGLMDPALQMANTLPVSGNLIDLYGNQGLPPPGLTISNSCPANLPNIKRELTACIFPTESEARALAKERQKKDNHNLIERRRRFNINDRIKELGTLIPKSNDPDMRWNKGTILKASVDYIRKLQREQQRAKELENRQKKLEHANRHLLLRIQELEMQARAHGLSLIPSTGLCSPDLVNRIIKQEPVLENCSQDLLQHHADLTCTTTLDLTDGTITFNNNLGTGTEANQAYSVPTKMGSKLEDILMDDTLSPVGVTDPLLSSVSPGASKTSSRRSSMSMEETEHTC

cells = assay type: functional
[6] = target: Heat shock protein HSP 90-alpha (Homo sapiens, UniProt P07900); assay type: functional, organism-based
HEK293 [7] = experiment: cells; settings: Homo sapiens; remark: listed apart in the source
[8] = target: Induced myeloid leukemia cell differentiation protein Mcl-1 (Homo sapiens, UniProt Q07820); assay type: functional
Sequence of Induced myeloid leukemia cell differentiation protein Mcl-1 (Q07820 whole entry): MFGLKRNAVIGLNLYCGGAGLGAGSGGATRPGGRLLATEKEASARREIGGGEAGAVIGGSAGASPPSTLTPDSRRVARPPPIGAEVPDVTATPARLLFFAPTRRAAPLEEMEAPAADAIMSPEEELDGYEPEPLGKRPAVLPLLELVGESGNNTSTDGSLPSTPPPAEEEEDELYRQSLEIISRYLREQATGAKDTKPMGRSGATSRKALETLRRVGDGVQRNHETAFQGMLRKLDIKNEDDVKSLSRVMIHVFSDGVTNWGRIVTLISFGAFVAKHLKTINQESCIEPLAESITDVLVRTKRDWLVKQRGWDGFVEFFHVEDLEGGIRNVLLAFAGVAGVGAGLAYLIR

[9] = target: T3, Replicative DNA helicase DnaB (Mycobacterium tuberculosis, UniProt P9WMR3); experiment: DnaB intein splicing inhibitors, dose response, biochemical, cell-free fluorescence (AID 449749); assay type: functional
T3 sequence (P9WMR3 whole entry): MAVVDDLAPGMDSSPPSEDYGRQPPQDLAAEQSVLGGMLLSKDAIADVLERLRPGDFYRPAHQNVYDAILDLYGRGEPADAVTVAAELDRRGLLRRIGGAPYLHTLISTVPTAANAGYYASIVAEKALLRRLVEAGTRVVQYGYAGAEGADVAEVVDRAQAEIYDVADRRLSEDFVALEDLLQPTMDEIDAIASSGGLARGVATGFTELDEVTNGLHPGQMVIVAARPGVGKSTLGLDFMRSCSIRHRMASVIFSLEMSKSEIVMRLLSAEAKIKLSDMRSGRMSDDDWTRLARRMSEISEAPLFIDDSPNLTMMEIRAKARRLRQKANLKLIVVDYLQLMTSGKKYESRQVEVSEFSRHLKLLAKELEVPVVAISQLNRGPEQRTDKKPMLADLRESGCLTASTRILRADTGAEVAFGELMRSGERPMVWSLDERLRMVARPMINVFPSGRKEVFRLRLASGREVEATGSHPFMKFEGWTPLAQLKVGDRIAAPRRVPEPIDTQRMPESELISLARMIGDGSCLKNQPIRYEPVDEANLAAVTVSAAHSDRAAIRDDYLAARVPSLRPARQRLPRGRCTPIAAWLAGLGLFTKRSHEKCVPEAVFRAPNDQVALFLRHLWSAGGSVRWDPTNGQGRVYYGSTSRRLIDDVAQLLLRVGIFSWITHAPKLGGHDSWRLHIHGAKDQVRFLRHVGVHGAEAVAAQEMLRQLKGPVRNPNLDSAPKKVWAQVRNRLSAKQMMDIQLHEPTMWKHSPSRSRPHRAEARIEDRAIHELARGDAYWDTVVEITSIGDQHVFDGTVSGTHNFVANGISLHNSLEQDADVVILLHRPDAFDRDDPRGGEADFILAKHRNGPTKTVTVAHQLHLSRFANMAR

Escherichia coli = experiment: microbe, parasite or virus in culture
HeLa = experiment: ATP-based viability loss in HeLa cells – cell-based, CellTiter-Glo luminescence, cherry-pick samples, cytotoxicity control for MITF activator project, dose response (AID 540259); assay type: functional; settings: Homo sapiens
[10] = target: T4, Sentrin-specific protease 6 (Homo sapiens, UniProt Q9GZR1); experiment: SAR Analysis of small molecule inhibitors of Sentrin-specific protease 6 (SENP6) using a Luminescent assay. [Related pubchem assays (depositor defined):AID2582, AID2599]; assay type: functional
T4 sequence (Q9GZR1 whole entry): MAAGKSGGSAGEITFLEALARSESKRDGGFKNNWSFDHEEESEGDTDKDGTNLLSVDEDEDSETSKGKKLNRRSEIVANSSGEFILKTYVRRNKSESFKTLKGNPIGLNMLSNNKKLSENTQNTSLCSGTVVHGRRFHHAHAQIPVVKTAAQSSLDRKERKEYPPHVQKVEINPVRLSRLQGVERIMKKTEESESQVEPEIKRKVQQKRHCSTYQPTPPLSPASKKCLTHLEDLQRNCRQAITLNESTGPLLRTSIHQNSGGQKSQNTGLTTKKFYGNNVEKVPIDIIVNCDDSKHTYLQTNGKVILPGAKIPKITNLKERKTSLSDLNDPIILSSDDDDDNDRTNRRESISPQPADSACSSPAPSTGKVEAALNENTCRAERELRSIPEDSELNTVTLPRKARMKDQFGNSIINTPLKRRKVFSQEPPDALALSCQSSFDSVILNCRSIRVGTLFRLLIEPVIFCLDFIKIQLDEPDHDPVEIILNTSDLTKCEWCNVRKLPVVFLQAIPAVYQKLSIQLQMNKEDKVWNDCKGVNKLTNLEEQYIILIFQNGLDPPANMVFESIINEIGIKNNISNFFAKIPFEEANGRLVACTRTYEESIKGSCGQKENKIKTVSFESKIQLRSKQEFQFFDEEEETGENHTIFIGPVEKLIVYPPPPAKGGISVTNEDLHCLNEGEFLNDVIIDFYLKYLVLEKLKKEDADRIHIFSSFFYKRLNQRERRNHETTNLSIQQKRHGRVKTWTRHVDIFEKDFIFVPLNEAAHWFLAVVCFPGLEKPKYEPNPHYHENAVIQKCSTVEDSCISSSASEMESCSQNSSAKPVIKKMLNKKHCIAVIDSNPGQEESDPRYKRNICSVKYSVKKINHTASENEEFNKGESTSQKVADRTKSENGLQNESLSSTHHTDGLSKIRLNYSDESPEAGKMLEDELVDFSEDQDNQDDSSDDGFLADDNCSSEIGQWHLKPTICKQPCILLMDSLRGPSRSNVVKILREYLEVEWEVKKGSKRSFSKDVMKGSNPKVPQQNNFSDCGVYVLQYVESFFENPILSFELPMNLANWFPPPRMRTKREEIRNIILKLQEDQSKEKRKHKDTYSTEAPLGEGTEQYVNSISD

[11] = target: T5, Sentrin-specific protease 8 (Homo sapiens, UniProt Q96LD8); experiment: inhibition of human SENP8 cleavage activity – biochemical, luminescence, SAR follow-up (AID 504501); assay type: functional
T5 sequence (Q96LD8 whole entry): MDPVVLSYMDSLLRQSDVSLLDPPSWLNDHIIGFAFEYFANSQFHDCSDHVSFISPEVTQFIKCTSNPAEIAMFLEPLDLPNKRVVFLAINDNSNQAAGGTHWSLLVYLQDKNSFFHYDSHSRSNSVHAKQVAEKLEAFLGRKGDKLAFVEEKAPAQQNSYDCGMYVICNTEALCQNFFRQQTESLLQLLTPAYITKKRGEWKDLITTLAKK

[12] = target: T6, Sentrin-specific protease 7 (Homo sapiens, UniProt Q9BQF6); experiment: inhibition of human SENP7 cleavage activity – biochemical, luminescence, SAR follow-up (AID 504497); assay type: functional
T6 sequence (Q9BQF6 whole entry): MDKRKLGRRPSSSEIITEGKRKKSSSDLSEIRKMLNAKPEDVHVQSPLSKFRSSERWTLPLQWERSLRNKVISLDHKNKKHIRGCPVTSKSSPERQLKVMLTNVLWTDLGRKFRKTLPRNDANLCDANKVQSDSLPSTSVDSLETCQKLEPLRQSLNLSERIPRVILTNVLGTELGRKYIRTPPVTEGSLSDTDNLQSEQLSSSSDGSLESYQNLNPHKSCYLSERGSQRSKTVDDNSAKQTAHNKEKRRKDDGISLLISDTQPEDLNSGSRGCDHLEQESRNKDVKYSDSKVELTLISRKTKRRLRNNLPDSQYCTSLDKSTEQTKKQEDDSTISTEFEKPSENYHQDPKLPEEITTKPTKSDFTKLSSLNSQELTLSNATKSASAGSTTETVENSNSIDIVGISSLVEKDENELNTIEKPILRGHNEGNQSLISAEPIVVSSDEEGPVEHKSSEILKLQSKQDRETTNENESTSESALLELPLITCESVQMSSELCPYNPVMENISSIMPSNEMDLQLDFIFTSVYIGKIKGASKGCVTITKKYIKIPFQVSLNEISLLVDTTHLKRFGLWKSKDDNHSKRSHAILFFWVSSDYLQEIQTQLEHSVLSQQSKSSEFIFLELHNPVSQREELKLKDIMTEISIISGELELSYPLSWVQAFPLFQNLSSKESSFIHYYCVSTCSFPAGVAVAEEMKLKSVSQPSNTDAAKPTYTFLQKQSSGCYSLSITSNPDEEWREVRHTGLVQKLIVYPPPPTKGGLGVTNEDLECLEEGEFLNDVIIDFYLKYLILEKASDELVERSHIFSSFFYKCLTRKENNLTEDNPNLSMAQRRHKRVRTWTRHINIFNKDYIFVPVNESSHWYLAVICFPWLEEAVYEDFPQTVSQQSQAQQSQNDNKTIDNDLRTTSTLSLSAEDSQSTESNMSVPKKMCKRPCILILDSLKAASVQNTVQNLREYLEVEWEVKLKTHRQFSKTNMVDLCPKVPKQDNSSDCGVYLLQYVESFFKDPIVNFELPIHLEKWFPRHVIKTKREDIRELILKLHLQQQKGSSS

Caspase-3 = target: T7, Caspase-3 (Homo sapiens, UniProt P42574); experiment: SAR Analysis of small molecule inhibitors of Sentrin-specific proteases (SENPs) using a Caspase-3 Selectivity assay. [Related pubchem assays (depositor defined):AID2540, AID2599, AID434973, AID489001]; assay type: functional
T7 sequence (P42574 whole entry): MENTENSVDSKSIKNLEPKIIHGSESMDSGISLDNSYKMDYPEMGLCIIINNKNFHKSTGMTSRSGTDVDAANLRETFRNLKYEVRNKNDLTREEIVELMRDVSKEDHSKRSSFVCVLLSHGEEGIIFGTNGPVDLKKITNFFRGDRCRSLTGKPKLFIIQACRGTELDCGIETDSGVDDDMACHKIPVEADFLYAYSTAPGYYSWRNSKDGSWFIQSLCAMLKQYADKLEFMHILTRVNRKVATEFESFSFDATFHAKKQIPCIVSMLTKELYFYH

O=C1Nc2ccc(Br)cc2/C1=C/C(=O)c1ccc2c(c1)OCO2
EC50 (Protein RecA): 1.46 µM (active) | CC50 [1]: 32.2 µM (active) | CC50 [2]: 18.9 µM (active) | EC50 (HEK293 [3]): > 59.6 µM (inactive) | CC50 [4]: 11.9 µM (active) | AC50 [5]: 25.5 µM (active) | IC50 (cells): 15.2 µM (active) | AC50 [6]: 2.17 µM (active) | EC50 (HEK293 [7]): > 59.6 µM (inactive) | IC50 [8]: 1.29 µM (active) | AC50 [9]: 36.3 µM (active)

COc1ccc(OC2OC3COC(c4ccco4)OC3C(O)C2NC(C)=O)cc1 (stereo not given)
AC50 (Escherichia coli): 32.1 µM (active)

COc1ccc2[nH]c(-c3ccccc3)cc2c1
AC50 (HeLa): 55.1 µM (active)

CC(C(=O)NC1CCCC1)N1CCN(S(=O)(=O)c2ccc(C(C)(C)C)cc2)CC1 (stereo not given)
AC50 (Escherichia coli): 70.4 µM (active)

Cc1ccc(CNC(=O)C2CCCN2C(=O)Nc2ccccc2)cc1 (stereo not given)
AC50 (Escherichia coli): 33.2 µM (active)

CN(C1=NC(=O)/C(=C2\C(=O)Nc3ccccc32)S1)c1ccc(O)cc1
AC50 (HeLa): 45.4 µM (active)

Ic1ccccc1-c1nc(/C=C/c2ccccc2)no1
IC50 [10]: 13 µM (active) | IC50 [11]: 15 µM (active) | IC50 [12]: 5 µM (active) | IC50 (Caspase-3): 18 µM (active)
